In US6337330B1, “Antitussives” (priority 1997, dated 2002):

Tests used:
[1] = tested on: Rat Model of Capsaicin-induced Cough; assay: Antitussive action using rat model of capsaicin-induced cough; format: in vivo, SD male rats; conditions: 30 minutes after administration, capsaicin 60 μM, versus distilled water group
From the text: Evaluation of Antitussive Action Using Rat Model of Capsaicin-induced Cough
Rat groups each consisting of 5 SD male rats (Charles River Japan) of 7 weeks old were used. The rats not anesthetized were placed in a container comprising two acrylic cylinders including a head and a body. A rubber collar and plastic collar were put on each of the rats, and the head and body of the container were independently provided.
Capsaicin used as a medicine for inducing coughs was aerosolized by an ultrasonic nebulizer, and inhaled by the rats from the front side of the container by using an artificial respiration apparatus. The concentration of capsaicin was 60 μM. In this inhalation, the flow rate of air was 10 ml×70 times/min (700 ml/min). Changes in internal pressure of the closed body box were recorded on a recorder through a differential transducer. Coughs were measured by the changes in internal the body box and visually observing the motions of the rats.
A medicine was diluted with distilled water, and 1 to 10 mg/5 ml/kg was subcutaneously administered.
Each of the rats was fixed by a holder, and 60 minutes after, capsaicin was inhaled for 3 minutes to count the number of coughs. The rats having at least 9 coughs were subjected to examination of a medicine. The rats were administered subcutaneously with a medicine, and fixed by a holder, and 30 minutes after, capsaicin was inhaled for 3 minutes to count the number of coughs. The antitussive action of each of compounds was represented by the inhibition rate shown by the number of coughs of the group in which a medicine was administered based on the number of coughs of the group in which distilled water was administered.

[2] = tested on: Mouse Model of Capsaicin-induced Cough; assay: Antitussive action using mouse model of capsaicin-induced cough; format: in vivo
Procedure: Evaluation of Antitussive Action Using Mouse Model of Capsaicin-induced Cough
Capsaicin (30 μM) was sent as aerosol to a cap attached to the head of a mouse by using an ultrasonic nebulizer and an artificial respiratory apparatus through a silicon tube, and inhaled by the mouse to induce coughs. For inhalation of capsaicin, capsaicin was sent by using the artificial respiratory apparatus at a rate of 60 times per minute in a dose of 5 ml at a time.
15 minutes before administration of a medicine, capsaicin was inhaled for 3 minutes, and it was confirmed that coughs were induced during this time. 15 minutes, 60 minutes and 120 minutes after administration of a medicine, capsaicin was inhaled for 3 minutes to measure the number of coughs induced during this time. The antitussive effect was evaluated by determining the inhibition rate shown by the number of coughs after administration of a medicine based on the number of coughs before administration of a medicine. Capsaicin was dissolved in 10% ethanol and a 10% Tween 80 solution, and diluted with physiological saline. The medicine was dissolved in physiological saline, and intraperitoneally administered.

Oc1cccc([C@@]23CCN(CCc4ccccc4)C[C@H]2Cc2cc4ccccc4nc2C3)c1 [Compound 7, (4aR, 12aR)-2-(2-phenethyl)-4a-(3-hydroxyphenyl)-1,2,3,4,4a,5,12,12a-octahydroquinolino[2,3-g]isoquinoline]
Inhibition rate (%) of number of coughs ([1]; 1 mg/kg subcutaneous): 44.3%

CN1CC[C@@]2(c3cccc(O)c3)Cc3nc4ccccc4cc3CC2C1 (stereo in doubt) [Compound 2, (4aR, 12aR)-2-methyl-4a-(3-hydroxyphenyl)-1,2,3,4,4a,5,12,12a-octahydro-quinolino[2,3-g]isoquinoline]
time of peak antitussive effect after administration ([2]; 10 μg/kg intraperitoneal): 15 min | antitussive effect 120 minutes after administration ([2]; 10 μg/kg intraperitoneal, 120 minutes after administration): recovered to the same level as a group in which physiological saline was administered | effect of suppressing coughs (inhibition rate of number of coughs) ([2]; 10 μg/kg intraperitoneal, versus physiological saline group, p<0.05 (U test)): significant effect of suppressing coughs | ED50 ([2]; ip, intraperitoneal, fifteen minutes after administration, capsaicin 30 μM inhalation, calculated from FIG. 2, read-out: ED50 value of the antitussive effect): 4.2 µg/kg | Inhibition rate (%) of number of coughs ([1]; 1 mg/kg subcutaneous): 72.5%

Oc1cccc([C@@]23CCN(CC4CC4)CC2Cc2cc4ccccc4nc2C3)c1 (stereo in doubt) [Compound 6, (4aR, 12aR)-2-cyclopropylmethyl-4a-(3-hydroxyphenyl)-1,2,3,4,4a,5,12,12a-octahydroquinolino[2,3-g]isoquinoline]
Inhibition rate (%) of number of coughs ([1]; 1 mg/kg subcutaneous): 30.9%

COc1cccc([C@@]23CCN(C)C[C@@H]2Cc2cc4ccccc4nc2C3)c1
melting point: 154 to 155.5 °C

Oc1cccc([C@@]23CCNCC2Cc2cc4ccccc4nc2C3)c1 (stereo in doubt) [Compound 4, (4aR, 12aR)-4a-(3-hydroxyphenyl)-1,2,3,4,4a,5,12,12a-octahydroquinolino[2,3-g]isoquinoline]
Inhibition rate (%) of number of coughs ([1]; 10 mg/kg subcutaneous): 34.0%
